Laboratory results reported in patent EP0880968A1, “Pharmaceutical compositions of peptides having low solubility in physiological medium” (Applied Research Systems ARS Holding N.V., priority 1997, dated 1998).
≈ marks a conversion by molar mass, not a printed value. Where “and” joins values, the source holds several entries; their conditions need not be identical. Identical values can stand only once. Like-named read-outs stand apart in the source and are kept apart here. Square brackets hold non-standard residues; d marks the D form. Peptide text beside a SMILES is read from it. * marks the point of attachment. dPhe(4-Cl) = N[C@H](Cc1ccc(Cl)cc1)C(=O)O; d2Nal = N[C@H](Cc1ccc2ccccc2c1)C(=O)O; Lys(iPr) = CC(C)NCCCC[C@H](N)C(=O)O; d3Pal = N[C@H](Cc1cccnc1)C(=O)O; Nicotinoyl = O=C(c1cccnc1)*

Experiments:
[1] = Solubilisation studies (visual appearance and RP-HPLC solubility after equilibration overnight at 25°C); format: physicochemical
Protocol: (§1) RP-HPLC gradient elution, C-18 (e.g. Vydac 218 TP54, 250 x 4.6 mm) column. UV detection at 215 nm, injection volume 15 µl mobile phase A: pH 4.5 phosphate buffer (0.1M), mobile phase B: acetonitrile, flow rate = 1.0 ml/min, runtime = 23 min. External standard solution concentrations of 100 µg/ml were injected during analysis. The gradient was: 77% A, 23% B to 52% A, 48% B […].
Solubilisation studies were carried out to study the effect of: • pH (solutions were acidified with either acetic acid or hydrochloric acid) • hydrotropic agents (nicotinamide, sodium saccharin, sodium salicylate, sodium benzoate, histidine hydrochloride, thiamine hydrochloride, phenylalanine).
Saline used in these studies corresponds to 0.9% sodium chloride solution.
Following the visual analysis, a number of solutions were selected for further quantitative determination of the solubility by filtration (0.45 µm filters) and appropriate dilution using the RP-HPLC method described above.

[2] = Stability of nicotinamide/antide formulations (chemical compatibility); format: physicochemical; conditions: pH 5
Protocol: as §1
Four formulations of antide and nicotinamide at different concentration ratios and adjusted to pH 5 were prepared and tested over 3 months at +40°C, +25°C and +4°C.
Chromatographic traces of antide were identical to those of the standard, with the addition of the early eluting nicotinamide peak which appeared at a retention tune of 3.2 minutes.

Work on CC(=O)N[C@H](Cc1ccc2ccccc2c1)C(=O)N[C@H](Cc1ccc(Cl)cc1)C(=O)N[C@H](Cc1cccnc1)C(=O)N[C@@H](CO)C(=O)N[C@@H](CCCCNC(=O)c1cccnc1)C(=O)N[C@H](CCCCNC(=O)c1cccnc1)C(=O)N[C@@H](CC(C)C)C(=O)N[C@@H](CCCCNC(C)C)C(=O)N1CCC[C@H]1C(=O)N[C@H](C)C(N)=O [antide] (Ac-[d2Nal][dPhe(4-Cl)][d3Pal]SK(Nicotinoyl)[dK](Nicotinoyl)L[Lys(iPr)]P[dA]-NH2) yielded a solubility thermodynamic ([1]; 0.9% NaCl solution (saline), saline or isotonic, 0.9% NaCl solution) of 25 µg/mL (≈ 15.7 µM), a Solubility ([1]; 1% acetic acid in saline, 5 mg/ml antide added, pH 3.12, not quantified, read-out: drug solubility) of under 5 mg/mL and a solubility thermodynamic ([1]; WFI (water for injection), pH 4.4, water, WFI, nominal amount added 10 mg/ml, pH 4.40) of 8130 µg/mL (≈ 5110 µM). For the same compound, the Solubility ([1]; WFI (water for injection), water, WFI, nominal amount added 1 mg/ml, pH 5.00, read-out: Solubility) was at least 1 mg/mL, the “Solubility” value ([1]; WFI, nominal amount added 10 mg/ml, pH 4.40) was 8.1 mg/mL (≈ 5090 µM) and the solubility thermodynamic ([1]; phosphate buffered saline, aqueous buffer) was 16 µg/mL (≈ 10.1 µM). The “Solubility” value ([1]; saline + 15% nicotinamide, nominal amount added 5 mg/ml, pH 5.79 (Table 9)) was 3.3 mg/mL and 3.32 mg/mL, the “Solubility” value ([1]; saline + 15% sodium benzoate, nominal amount added 5 mg/ml, pH 6.69) was 0.072 mg/mL and the “Solubility” value ([1]; saline + 15% sodium salicylate, nominal amount added 5 mg/ml, pH 5.81) was 0.21 mg/mL. For the same compound, the “Solubility” value ([1]; saline + 15% thiamine hydrochloride, nominal amount added 5 mg/ml, pH 3.30) was 3.0 mg/mL and 3.01 mg/mL, the “Solubility” value ([1]; saline + histidine hydrochloride (5%), nominal amount added 5 mg/ml, pH 4.17) was 0.076 mg/mL and the “Solubility” value ([1]; saline + nicotinamide 10%, nominal amount added 5 mg/ml, pH 5.68) was 1.40 mg/mL. For the same compound, the “Solubility” value ([1]; saline + nicotinamide 15%, nominal amount added 5 mg/ml, pH 5.76 (Table 10)) was 3.23 mg/mL, the “Solubility” value ([1]; saline + nicotinamide 20%, nominal amount added 10 mg/ml, pH 5.64) was 8.5 mg/mL and 8.49 mg/mL and the “Solubility” value ([1]; saline + phenylalanine (1.7%), nominal amount added 5 mg/ml, pH 4.59) was 0.066 mg/mL. For the same compound, the solubility thermodynamic ([1]; saline acidified with acetic acid, pH 3.01, saline or isotonic, nominal amount added 10 mg/ml, pH 3.01) was 2200 µg/mL (≈ 1380 µM), the “Solubility” value ([1]; saline acidified with acetic acid, nominal amount added 10 mg/ml, pH 3.01) was 2.23 mg/mL (≈ 1400 µM) and the solubility thermodynamic ([1]; saline, pH 5.04, saline or isotonic, nominal amount added 1 mg/ml, natural pH 5.04) was 25 µg/mL (≈ 15.7 µM). The “Stability of nicotinamide/antide formulations” value ([2]; antide 1 mg/ml, nicotinamide 5%, +4°C, 4W) was 0.9, the “Stability of nicotinamide/antide formulations” value ([2]; antide 1 mg/ml, nicotinamide 5%, +4°C, 12W) was 1.0 and the “Stability of nicotinamide/antide formulations” value ([2]; antide 1 mg/ml, nicotinamide 5%, +25°C, 1W) was 0.9. For the same compound, the “Stability of nicotinamide/antide formulations” value ([2]; antide 1 mg/ml, nicotinamide 5%, +25°C, 4W) was 0.9, the “Stability of nicotinamide/antide formulations” value ([2]; antide 1 mg/ml, nicotinamide 5%, +25°C, 12W) was 1.0 and the “Stability of nicotinamide/antide formulations” value ([2]; antide 1 mg/ml, nicotinamide 5%, +40°C, 1W) was 1.0. For the same compound, the “Stability of nicotinamide/antide formulations” value ([2]; antide 1 mg/ml, nicotinamide 5%, +40°C, 4W) was 0.9, the “Stability of nicotinamide/antide formulations” value ([2]; antide 1 mg/ml, nicotinamide 5%, +40°C, 12W) was 1.0 and the “Stability of nicotinamide/antide formulations” value ([2]; antide 1 mg/ml, nicotinamide 5%, T=0) was 1.0. For the same compound, the “Stability of nicotinamide/antide formulations” value ([2]; antide 1 mg/ml, nicotinamide 25%, +4°C, 4W) was 1.0, the “Stability of nicotinamide/antide formulations” value ([2]; antide 1 mg/ml, nicotinamide 25%, +4°C, 12W) was 1.1 and the “Stability of nicotinamide/antide formulations” value ([2]; antide 1 mg/ml, nicotinamide 25%, +25°C, 1W) was 1.0. For the same compound, the “Stability of nicotinamide/antide formulations” value ([2]; antide 1 mg/ml, nicotinamide 25%, +25°C, 4W) was 1.0, the “Stability of nicotinamide/antide formulations” value ([2]; antide 1 mg/ml, nicotinamide 25%, +25°C, 12W) was 1.1 and the “Stability of nicotinamide/antide formulations” value ([2]; antide 1 mg/ml, nicotinamide 25%, +40°C, 1W) was 1.0. The “Stability of nicotinamide/antide formulations” value ([2]; antide 1 mg/ml, nicotinamide 25%, +40°C, 4W) was 1.0, the “Stability of nicotinamide/antide formulations” value ([2]; antide 1 mg/ml, nicotinamide 25%, +40°C, 12W) was 1.1 and the “Stability of nicotinamide/antide formulations” value ([2]; antide 1 mg/ml, nicotinamide 25%, T=0) was 1.0. The “Stability of nicotinamide/antide formulations” value ([2]; antide 10 mg/ml, nicotinamide 5%, +4°C, 1W) was 10.3, the “Stability of nicotinamide/antide formulations” value ([2]; antide 10 mg/ml, nicotinamide 5%, +4°C, 4W) was 10.0 and the “Stability of nicotinamide/antide formulations” value ([2]; antide 10 mg/ml, nicotinamide 5%, +4°C, 12W) was 10.5. The “Stability of nicotinamide/antide formulations” value ([2]; antide 10 mg/ml, nicotinamide 5%, +25°C, 1W) was “increased viscosity with precipitate formation and gel”, the “Stability of nicotinamide/antide formulations” value ([2]; antide 10 mg/ml, nicotinamide 5%, +25°C, 4W) was “gel” and the “Stability of nicotinamide/antide formulations” value ([2]; antide 10 mg/ml, nicotinamide 5%, +25°C, 12W) was “gel”. For the same compound, the “Stability of nicotinamide/antide formulations” value ([2]; antide 10 mg/ml, nicotinamide 5%, +40°C, 1W) was “increased viscosity with precipitate formation and gel”, the “Stability of nicotinamide/antide formulations” value ([2]; antide 10 mg/ml, nicotinamide 5%, +40°C, 4W) was “gel” and the “Stability of nicotinamide/antide formulations” value ([2]; antide 10 mg/ml, nicotinamide 5%, +40°C, 12W) was “gel”. For the same compound, the “Stability of nicotinamide/antide formulations” value ([2]; antide 10 mg/ml, nicotinamide 5%, T=0) was 9.7, the “Stability of nicotinamide/antide formulations” value ([2]; antide 10 mg/ml, nicotinamide 25%, +4°C, 4W) was 10.1 and the “Stability of nicotinamide/antide formulations” value ([2]; antide 10 mg/ml, nicotinamide 25%, +25°C, 1W) was 9.8. For the same compound, the “Stability of nicotinamide/antide formulations” value ([2]; antide 10 mg/ml, nicotinamide 25%, +25°C, 4W) was 9.5, the “Stability of nicotinamide/antide formulations” value ([2]; antide 10 mg/ml, nicotinamide 25%, +25°C, 12W) was 11.1 and the “Stability of nicotinamide/antide formulations” value ([2]; antide 10 mg/ml, nicotinamide 25%, +40°C, 1W) was 10.7. For the same compound, the “Stability of nicotinamide/antide formulations” value ([2]; antide 10 mg/ml, nicotinamide 25%, +40°C, 4W) was 9.4, the “Stability of nicotinamide/antide formulations” value ([2]; antide 10 mg/ml, nicotinamide 25%, +40°C, 12W) was 10.2 and the “Stability of nicotinamide/antide formulations” value ([2]; antide 10 mg/ml, nicotinamide 25%, T=0) was 9.8.
